Source: patent US20080009418A1, “Selective Inhibitors” (Alchemia LTD., priority 2004, published 2008)

Experiments:
Human κ-Opioid (KOP) = target: T1, Human κ-Opioid (KOP) (Homo sapiens, UniProt P41145); assay: Radioligand binding, human κ-opioid (KOP) membranes, filtration, [3H]-Diprenorphine; settings: compound at 10 μM, [3H]-Diprenorphine
T1 construct: purchased Perkin Elmer Biosignal
Summary of the method: (§1)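 Filtration binding on cloned human receptor membranes (1 Unit/well), [125I]-Substance P for NK1 and [3H]-Diprenorphine for KOP, 1 h at room temperature. Filters PEI-presoaked, washed with cold 50 mM Tris-HCl pH 7.4, counted by scintillation; percent inhibition calculated, reference ligand defining non-specific binding.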

Mouse urotensin (mUR2) = target: T2, Mouse urotensin (mUR2) (Mus musculus, UniProt Q8VIH9); assay: Radioligand binding, mouse urotensin mUR2 membranes, FlashPlate, [125I]-Urotensin II; settings: compound at 10 μM, [125I]-Urotensin II
T2 construct: purchased Perkin Elmer Biosignal
T2 sequence (Q8VIH9 1-385): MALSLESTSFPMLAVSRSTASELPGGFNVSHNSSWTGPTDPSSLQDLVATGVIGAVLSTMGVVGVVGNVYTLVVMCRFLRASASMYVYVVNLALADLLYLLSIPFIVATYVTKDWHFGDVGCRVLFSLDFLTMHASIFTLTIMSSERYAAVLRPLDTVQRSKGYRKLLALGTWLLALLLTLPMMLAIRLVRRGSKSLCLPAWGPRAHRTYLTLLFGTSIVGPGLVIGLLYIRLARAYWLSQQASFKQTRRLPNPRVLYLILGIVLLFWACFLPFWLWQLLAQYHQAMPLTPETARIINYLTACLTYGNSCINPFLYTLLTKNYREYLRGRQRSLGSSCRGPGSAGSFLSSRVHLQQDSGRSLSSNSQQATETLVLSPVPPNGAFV
Summary of the method: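 Cloned mouse urotensin (mUR2) receptor membranes from Perkin Elmer Biosignal were immobilized in FlashPlate microplates using a proprietary coating. Each well got 19.5 μl buffer, then 0.5 μl of DMSO, reference ligand, or compound. Adding 5 μl of [125I]-Urotensin II, diluted to 5× final concentration in binding buffer, started binding. Plates were sealed with TopSeal-A and incubated 1 hour at room temperature in the dark. Wells were counted for 30 seconds each on a TopCount after a 60-second delay, and percentage inhibition was calculated.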

Human opioid (ORL1) = target: T3, Human opioid (ORL1) (Homo sapiens, UniProt P41146); assay: Radioligand binding, human opioid ORL1 membranes, FlashPlate, [125I]-Nociceptin; settings: compound at 10 μM, [125I]-Nociceptin
T3 construct: purchased Perkin Elmer Biosignal
T3 sequence (P41146 whole entry): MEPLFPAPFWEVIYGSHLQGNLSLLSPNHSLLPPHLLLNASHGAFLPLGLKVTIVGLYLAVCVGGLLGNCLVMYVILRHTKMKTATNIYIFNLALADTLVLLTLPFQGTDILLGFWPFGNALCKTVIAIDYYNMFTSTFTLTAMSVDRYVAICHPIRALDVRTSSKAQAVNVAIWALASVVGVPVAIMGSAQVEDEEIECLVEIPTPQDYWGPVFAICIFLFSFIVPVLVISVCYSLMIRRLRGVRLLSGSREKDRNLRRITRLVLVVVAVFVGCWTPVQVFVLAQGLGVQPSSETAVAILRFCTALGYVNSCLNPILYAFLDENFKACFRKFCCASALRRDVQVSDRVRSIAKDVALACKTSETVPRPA
Summary of the method: (§2)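 Cloned human receptor membranes were coated onto FlashPlate wells and incubated with radioligand and compound (added from a 0.5 mM DMSO daughter plate) for 1 hour at room temperature in the dark. Scintillation counting gave percent inhibition, with DMSO defining total and reference ligand defining non-specific binding.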

Human neurokinin (NK1) = target: T4, Human neurokinin (NK1) (Homo sapiens, UniProt P25103); assay: Radioligand binding, human neurokinin NK1 membranes, filtration, [125I]-Substance P; settings: compound at 10 μM, [125I]-Substance P
T4 construct: purchased Perkin Elmer Biosignal
T4 sequence (P25103 whole entry): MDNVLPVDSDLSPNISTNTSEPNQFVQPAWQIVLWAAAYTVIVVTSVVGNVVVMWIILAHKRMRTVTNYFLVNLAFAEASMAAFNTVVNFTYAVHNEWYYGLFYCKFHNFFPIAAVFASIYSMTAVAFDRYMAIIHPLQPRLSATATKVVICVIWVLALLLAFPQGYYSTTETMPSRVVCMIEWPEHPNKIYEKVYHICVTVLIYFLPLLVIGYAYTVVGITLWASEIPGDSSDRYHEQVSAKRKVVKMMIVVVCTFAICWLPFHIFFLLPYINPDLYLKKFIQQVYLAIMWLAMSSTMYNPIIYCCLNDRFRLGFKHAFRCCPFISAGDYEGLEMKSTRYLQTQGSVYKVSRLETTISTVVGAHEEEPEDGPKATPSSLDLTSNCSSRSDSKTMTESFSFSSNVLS
Summary of the method: as §1

[1] = target: T5, Human neuropeptide Y (NPY-Y1) (Homo sapiens, UniProt P25929); assay: Radioligand binding, human neuropeptide Y NPY-Y1 membranes, FlashPlate, [125I]-PYY; settings: compound at 10 μM, [125I]-PYY
T5 construct: purchased Perkin Elmer Biosignal
T5 sequence (P25929 1-384): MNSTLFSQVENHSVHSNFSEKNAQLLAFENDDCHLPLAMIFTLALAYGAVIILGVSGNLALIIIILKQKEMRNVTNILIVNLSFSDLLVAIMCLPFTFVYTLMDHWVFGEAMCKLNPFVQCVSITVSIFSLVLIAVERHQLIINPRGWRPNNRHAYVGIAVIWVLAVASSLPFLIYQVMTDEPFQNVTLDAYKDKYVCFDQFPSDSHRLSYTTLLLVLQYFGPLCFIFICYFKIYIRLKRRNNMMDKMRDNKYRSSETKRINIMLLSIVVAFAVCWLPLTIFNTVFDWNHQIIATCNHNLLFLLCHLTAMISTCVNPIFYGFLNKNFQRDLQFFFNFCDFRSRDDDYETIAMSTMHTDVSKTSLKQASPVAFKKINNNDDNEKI
Summary of the method: as §2

Human δ-opioid (DOP) = target: T6, Human δ-opioid (DOP) (Homo sapiens, UniProt P41143); assay: Radioligand binding, human δ-opioid (DOP) membranes, FlashPlate, [3H]-Bremazocine; settings: compound at 10 μM, [3H]-Bremazocine
T6 construct: purchased Perkin Elmer Biosignal
T6 sequence (P41143 whole entry): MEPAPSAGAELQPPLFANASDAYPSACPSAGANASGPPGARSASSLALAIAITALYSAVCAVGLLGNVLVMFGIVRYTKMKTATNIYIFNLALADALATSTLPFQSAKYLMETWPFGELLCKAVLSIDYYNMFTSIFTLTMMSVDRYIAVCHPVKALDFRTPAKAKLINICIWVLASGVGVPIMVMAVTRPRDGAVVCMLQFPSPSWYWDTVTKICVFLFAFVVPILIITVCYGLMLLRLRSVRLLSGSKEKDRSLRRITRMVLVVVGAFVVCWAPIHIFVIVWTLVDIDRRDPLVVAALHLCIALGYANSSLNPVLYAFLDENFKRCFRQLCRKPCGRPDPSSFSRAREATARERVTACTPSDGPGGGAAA
Summary of the method: as §2

Human melanocortin (MC5) = target: T7, Human melanocortin (MC5) (Homo sapiens, UniProt P33032); assay: Radioligand binding, human melanocortin MC5 membranes, FlashPlate, [125I]-NDP-αMSH; settings: compound at 10 μM, [125I]-NDP-αMSH
T7 construct: purchased Perkin Elmer Biosignal
T7 sequence (P33032 whole entry): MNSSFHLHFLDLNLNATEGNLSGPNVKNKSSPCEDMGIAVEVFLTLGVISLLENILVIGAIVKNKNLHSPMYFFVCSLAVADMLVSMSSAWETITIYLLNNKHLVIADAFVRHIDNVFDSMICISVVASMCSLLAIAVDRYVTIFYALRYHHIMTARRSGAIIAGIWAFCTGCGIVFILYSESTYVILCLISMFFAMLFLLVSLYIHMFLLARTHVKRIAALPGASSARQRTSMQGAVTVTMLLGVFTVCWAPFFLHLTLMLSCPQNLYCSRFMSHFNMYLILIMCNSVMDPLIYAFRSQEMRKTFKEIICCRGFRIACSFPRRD
Summary of the method: as §2

Human Melanocortin (MC3) = target: T8, Human Melanocortin (MC3) (Homo sapiens, UniProt P41968); assay: Radioligand binding, human melanocortin MC3 membranes, FlashPlate, [125I]-NDP-αMSH; settings: compound at 10 μM, [125I]-NDP-αMSH
T8 construct: purchased Perkin Elmer Biosignal
T8 sequence (P41968 whole entry): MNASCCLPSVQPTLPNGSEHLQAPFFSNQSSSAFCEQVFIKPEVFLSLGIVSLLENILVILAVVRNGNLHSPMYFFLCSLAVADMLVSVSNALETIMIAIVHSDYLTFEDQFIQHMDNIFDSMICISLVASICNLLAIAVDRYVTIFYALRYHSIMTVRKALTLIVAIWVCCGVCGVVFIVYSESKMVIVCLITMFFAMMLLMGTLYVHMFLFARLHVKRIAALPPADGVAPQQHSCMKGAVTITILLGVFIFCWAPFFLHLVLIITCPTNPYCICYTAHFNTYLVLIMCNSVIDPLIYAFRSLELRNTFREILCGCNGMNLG
Summary of the method: as §2

[2] = target: T9, Human melanin-concentrating hormone (MCH1) (Homo sapiens, UniProt Q99705); assay: Radioligand binding, human melanin-concentrating hormone MCH1 membranes, FlashPlate, [125I]-S36057; settings: compound at 10 μM; for A6 radioligand binding, percentage inhibition: [125I]-S36057
T9 construct: purchased Perkin Elmer Biosignal
T9 sequence (Q99705 whole entry): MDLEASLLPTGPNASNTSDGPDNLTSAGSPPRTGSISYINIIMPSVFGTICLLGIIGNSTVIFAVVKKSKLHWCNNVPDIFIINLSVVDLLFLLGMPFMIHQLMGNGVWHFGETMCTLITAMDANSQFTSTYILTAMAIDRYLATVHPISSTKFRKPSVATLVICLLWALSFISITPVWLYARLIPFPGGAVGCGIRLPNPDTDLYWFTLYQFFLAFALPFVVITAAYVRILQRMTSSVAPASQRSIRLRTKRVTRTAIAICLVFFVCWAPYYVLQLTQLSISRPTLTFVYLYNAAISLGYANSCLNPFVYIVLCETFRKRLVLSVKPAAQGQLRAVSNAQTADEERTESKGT
Summary of the method: as §2

Human μ-opioid (MOP) = target: T10, Human μ-opioid (MOP) (Homo sapiens, UniProt P35372); assay: Radioligand binding, human μ-opioid (MOP) membranes, FlashPlate, [3H]-Naloxone; settings: compound at 10 μM, [3H]-Naloxone
T10 construct: purchased Perkin Elmer Biosignal
T10 sequence (P35372 whole entry): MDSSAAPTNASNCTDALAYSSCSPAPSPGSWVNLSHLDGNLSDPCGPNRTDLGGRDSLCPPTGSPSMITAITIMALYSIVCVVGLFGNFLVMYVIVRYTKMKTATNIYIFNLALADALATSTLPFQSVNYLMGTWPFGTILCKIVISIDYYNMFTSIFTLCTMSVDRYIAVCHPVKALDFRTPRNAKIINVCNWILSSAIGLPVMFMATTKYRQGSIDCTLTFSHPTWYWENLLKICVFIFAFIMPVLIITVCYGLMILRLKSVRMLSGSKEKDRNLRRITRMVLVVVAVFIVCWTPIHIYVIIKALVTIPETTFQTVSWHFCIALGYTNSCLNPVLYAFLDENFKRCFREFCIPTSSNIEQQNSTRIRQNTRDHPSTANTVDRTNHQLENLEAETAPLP
Summary of the method: as §2

Human Melanocortin (MC4) = target: T11, Human Melanocortin (MC4) (Homo sapiens, UniProt P32245); assay: Radioligand binding, human melanocortin MC4 membranes, FlashPlate, [125I]-NDP-αMSH; settings: compound at 10 μM, [125I]-NDP-αMSH
T11 construct: purchased Perkin Elmer Biosignal
T11 sequence (P32245 whole entry): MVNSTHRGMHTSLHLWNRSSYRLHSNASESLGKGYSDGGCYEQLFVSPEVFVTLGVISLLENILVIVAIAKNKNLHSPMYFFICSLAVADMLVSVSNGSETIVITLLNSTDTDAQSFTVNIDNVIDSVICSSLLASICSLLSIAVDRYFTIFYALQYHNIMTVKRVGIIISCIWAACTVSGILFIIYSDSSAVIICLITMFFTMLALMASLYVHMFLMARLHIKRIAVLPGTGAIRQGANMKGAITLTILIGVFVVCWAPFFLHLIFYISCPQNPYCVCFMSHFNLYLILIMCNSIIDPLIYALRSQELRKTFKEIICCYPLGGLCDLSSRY
Summary of the method: as §2

T1 sequence (P41145 whole entry): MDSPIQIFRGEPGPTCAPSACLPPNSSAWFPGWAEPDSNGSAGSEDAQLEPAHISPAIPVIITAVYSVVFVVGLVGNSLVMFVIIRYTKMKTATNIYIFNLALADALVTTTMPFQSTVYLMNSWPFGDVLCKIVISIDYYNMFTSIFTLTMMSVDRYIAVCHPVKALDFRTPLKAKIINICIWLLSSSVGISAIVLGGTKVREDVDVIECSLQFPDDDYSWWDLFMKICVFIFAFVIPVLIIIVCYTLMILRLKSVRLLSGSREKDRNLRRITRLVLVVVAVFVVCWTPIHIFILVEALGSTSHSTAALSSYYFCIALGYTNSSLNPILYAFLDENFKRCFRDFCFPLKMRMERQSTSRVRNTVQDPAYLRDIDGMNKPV

| SMILES | A2 radioligand binding, percentage inhibition (Human κ-Opioid (KOP)) | A11 radioligand binding, percentage inhibition (Mouse urotensin (mUR2)) | A10 radioligand binding, percentage inhibition (Human opioid (ORL1)) | A8 radioligand binding, percentage inhibition (Human neurokinin (NK1)) | A9 radioligand binding, percentage inhibition [1] | A1 radioligand binding, percentage inhibition (Human δ-opioid (DOP)) | A5 radioligand binding, percentage inhibition (Human melanocortin (MC5)) | A3 radioligand binding, percentage inhibition (Human Melanocortin (MC3)) | A6 radioligand binding, percentage inhibition [2] | A7 radioligand binding, percentage inhibition (Human μ-opioid (MOP)) | A4 radioligand binding, percentage inhibition (Human Melanocortin (MC4)) | other results |
| --- | --- | --- | --- | --- | --- | --- | --- | --- | --- | --- | --- | --- |
| CSC1OC(COCc2ccccc2)C(O)C(OCc2ccccc2)C1NC(=O)CCNC(=N)N (stereo not drawn) [compound 251] |  |  |  |  |  |  |  |  |  |  |  | A2: inhibition of radioligand binding (Human κ-Opioid (KOP); filtration): − (“−” indicates less than 50% inhibition at 10 μM); A11: inhibition of radioligand binding (Mouse urotensin (mUR2); FlashPlate): − (“−” indicates less than 50% inhibition at 10 μM); A10: inhibition of radioligand binding (Human opioid (ORL1); FlashPlate): − (“−” indicates less than 50% inhibition at 10 μM); A8: inhibition of radioligand binding (Human neurokinin (NK1); filtration): + (“+” indicates greater than 50% inhibition at 10 μM); A9: inhibition of radioligand binding ([1]; FlashPlate): − (“−” indicates less than 50% inhibition at 10 μM); A1: inhibition of radioligand binding (Human δ-opioid (DOP); FlashPlate): − (“−” indicates less than 50% inhibition at 10 μM); A5: inhibition of radioligand binding (Human melanocortin (MC5); FlashPlate): − (“−” indicates less than 50% inhibition at 10 μM); A3: inhibition of radioligand binding (Human Melanocortin (MC3); FlashPlate): − (“−” indicates less than 50% inhibition at 10 μM); A6: inhibition of radioligand binding ([2]; [125I]-S36057, FlashPlate): − (“−” indicates less than 50% inhibition at 10 μM); A7: inhibition of radioligand binding (Human μ-opioid (MOP); FlashPlate): − (“−” indicates less than 50% inhibition at 10 μM); A4: inhibition of radioligand binding (Human Melanocortin (MC4); FlashPlate): − (“−” indicates less than 50% inhibition at 10 μM) |
| CO[C@H]1[C@H](O)[C@@H](COCc2ccc(-c3ccccc3)cc2)OC(OCCc2ccccc2)[C@@H]1NC(=O)CCCN (stereo partly drawn) [compound 111] | − (“−” indicates less than 50% inhibition at 10 μM) | − (“−” indicates less than 50% inhibition at 10 μM) | − (“−” indicates less than 50% inhibition at 10 μM) | + (“+” indicates greater than 50% inhibition at 10 μM) | − (“−” indicates less than 50% inhibition at 10 μM) | − (“−” indicates less than 50% inhibition at 10 μM) | − (“−” indicates less than 50% inhibition at 10 μM) | − (“−” indicates less than 50% inhibition at 10 μM) | − (“−” indicates less than 50% inhibition at 10 μM) | − (“−” indicates less than 50% inhibition at 10 μM) | − (“−” indicates less than 50% inhibition at 10 μM) |  |
| CO[C@H]1[C@H](O)[C@@H](COCc2cccc(O)c2)OC(OCCc2ccccc2)[C@@H]1NC(=O)CCNC(=N)N (stereo partly drawn) [compound 159] | − (“−” indicates less than 50% inhibition at 10 μM) | − (“−” indicates less than 50% inhibition at 10 μM) | − (“−” indicates less than 50% inhibition at 10 μM) | + (“+” indicates greater than 50% inhibition at 10 μM) | − (“−” indicates less than 50% inhibition at 10 μM) | − (“−” indicates less than 50% inhibition at 10 μM) | − (“−” indicates less than 50% inhibition at 10 μM) | − (“−” indicates less than 50% inhibition at 10 μM) | − (“−” indicates less than 50% inhibition at 10 μM) | − (“−” indicates less than 50% inhibition at 10 μM) | − (“−” indicates less than 50% inhibition at 10 μM) |  |
